Laboratory results: patent publication US20050048563A1, “Membrane molecule indicator compositions and methods” (Novasite Pharmaceuticals, Inc, priority 2000, published 2005)

Assays:
[1] = test system: PLC; assay type: cell-based, mouse
[2] = test system: adrenal glomerulosa cells; assay: Confocal PLCδ1PH-GFP translocation in adrenal glomerulosa cells; assay type: cell-based, bovine; settings: angiotensin II stimulation, 2 mM Sr^2+ or Ca^2+

With `CCCCCCCC/C=C\CCCCCCCC(=O)OCC(O)COP(=O)(O)O` (centres unmarked) [LPA, 1-oleoyl LPA] the “translocation amplitude relative to BK response control / BK-induced peak values” [1] was 25%.
In the case of `NCCc1c[nH]cn1` [histamine], the “duration of translocation response” value [1] is reported as at least 15 min and the “translocation amplitude relative to BK response control / BK-induced peak values” [1] is reported as 40%.
With aluminum fluoride [A1F^4−] the “desensitization of PLC activation” value [1] was “no desensitization” and the “onset of PLC activation” value [1] was “slow”.
In the case of “angiotensin II (DRVYIHPF; Angiotensin-2; UniProt P01019 25-32, looked up)”, the “translocation of PLCδ1PH-GFP in presence of Sr^2+ versus Ca^2+” value [2] is reported as “not significantly different”.
In the case of neurokinin A [NKA], the “desensitization of PLC activation on repeated NKA pulses” value [1] is reported as “incremental partial homologous desensitization” and the “translocation of the probe (PLC activation profile)” value [1] is reported as “fast and near-complete translocation”.
